# According to publication PMC11365428 (The Journal of Biological Chemistry, 2024):
# Non-standard residues stand in square brackets, D forms with d. Residues, ends and D or L forms follow the SMILES beside them. pGlu = O=C1CC[C@@H](C(=O)O)N1
# How the values were obtained:
# Assay type in all cases: cell-based
# apTKRPR-A [1] = biological target: T1, apTKRPR-A (Aplysia californica, UniProt A0AAU7SSZ1); assay: Receptor desensitization assay, protocol 1 (prolonged agonist exposure), apTKRPR-A; conditions: 10 μM, 2, 5, 10, 15, 30 and 60 min at 37 °C; fold increase over basal; n = 3
# T1 sequence (A0AAU7SSZ1 1-398): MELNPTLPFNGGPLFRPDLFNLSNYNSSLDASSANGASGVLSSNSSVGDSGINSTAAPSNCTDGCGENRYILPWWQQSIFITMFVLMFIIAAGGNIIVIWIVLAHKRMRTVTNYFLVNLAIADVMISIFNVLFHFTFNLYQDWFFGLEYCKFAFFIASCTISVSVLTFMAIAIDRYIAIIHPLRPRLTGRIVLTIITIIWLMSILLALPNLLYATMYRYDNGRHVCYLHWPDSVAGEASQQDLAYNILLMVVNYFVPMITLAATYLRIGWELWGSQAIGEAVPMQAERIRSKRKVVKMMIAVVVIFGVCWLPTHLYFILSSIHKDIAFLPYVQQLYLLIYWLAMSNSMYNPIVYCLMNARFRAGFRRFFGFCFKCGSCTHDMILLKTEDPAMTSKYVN
# Procedure: (§1) Therefore, we adopted two protocols to study the desensitization of apTKRPRs. The protocols were performed using a procedure modified from previous work ([87], [88], [89]).
# Protocol 1 ([87], [88]): Under continuous (prolonged) stimulation with an agonist, we examined agonist-induced desensitization by quantifying the rate of IP1 accumulation. Specifically, CHO-K1 cells transiently expressing pcDNA3.1-apTKRPRs were incubated in the absence or presence of 10 μM (saturating concentration) apTKRP-2b for the different duration (2, 5, 10, 15, 30, and 60 min) at 37 °C, and intracellular concentrations of IP1 accumulation were measured. Data are presented as fold increase over basal IP1 concentration (Fig. S10).
# apTKRPR-B = biological target: T2, apTKRPR-B (Aplysia californica, UniProt A0AAU7STS1); assay: Receptor desensitization assay, protocol 2 (repeated agonist exposure), apTKRPR-B; conditions: 10 μM pretreatment 2-60 min without LiCl, wash, second 10 μM application for 15 min with LiCl; % of control; n = 5
# T2 sequence (A0AAU7STS1 1-447): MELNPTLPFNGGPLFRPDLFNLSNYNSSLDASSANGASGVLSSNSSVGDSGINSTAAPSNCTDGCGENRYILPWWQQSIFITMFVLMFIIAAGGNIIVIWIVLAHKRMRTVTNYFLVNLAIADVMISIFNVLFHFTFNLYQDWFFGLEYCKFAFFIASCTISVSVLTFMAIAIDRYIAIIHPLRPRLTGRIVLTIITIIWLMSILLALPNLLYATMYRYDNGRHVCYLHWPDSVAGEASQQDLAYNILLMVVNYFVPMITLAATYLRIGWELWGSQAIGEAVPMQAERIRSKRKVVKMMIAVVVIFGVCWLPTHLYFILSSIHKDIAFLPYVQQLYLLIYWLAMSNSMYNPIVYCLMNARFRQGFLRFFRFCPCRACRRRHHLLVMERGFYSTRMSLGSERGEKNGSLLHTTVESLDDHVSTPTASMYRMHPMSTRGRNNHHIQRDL
# Procedure: as §1
# Protocol 2 ([89]): To simulate repeated stimulation with an agonist, we examined agonist-induced desensitization by quantifying the accumulation level of IP1 after two applications of the agonist/ligand. Because the IP1 accumulation assay involves using LiCl to stop the degradation of IP1, in this protocol, LiCl was applied only during the second application of the agonist. Specifically, to elicit desensitization, cells were first exposed to 10 μM apTKRP-2b in the absence of LiCl for various pretreatment durations (pretreatment stage/phase Ⅰ). After this agonist exposure, cells were washed (three times) rapidly with PBS (phase Ⅱ), and the wash was consistently performed in each experiment. Responsiveness of the receptor was then assessed by measuring intracellular concentrations of IP1 accumulation in response to a second application of 10 μM apTKRP-2b for 15 min in the presence of LiCl (phase Ⅲ) (Fig. S11).
# apTKRPR-A [2] = biological target: T1, apTKRPR-A; assay: Cell surface expression by ELISA after ligand exposure, FLAG-apTKRPR-A; conditions: 10 µM, different durations, compared with 0 min, n = 4
# Procedure: (§2) Cell surface expression determination of apTKRPRs and mutant receptors, all with FLAG tags, was performed using a procedure modified from previous work ([64], [122], [123], [124]). Specifically, CHO-K1 cells were cultured in F-12K medium (Gibco, 21127-022) with 10% FBS (Genial, G11-70500) at 37 °C in a humidified incubator containing 5% CO2. When the cells were grown to 70 to 90% confluence, transfection experiments were performed (see “Cell culture and transfection” section). After 24 h, transfected cells were plated in 96-well white clear-bottom cell culture plates (Corning, 3610) at a density of 20,000 cells in 100 μl per well and incubated overnight. The following day, culture media was aspirated and cells were washed twice with 200 μl of 1× PBS (Procell, PB180327). Then, 100 μl of 1× PBS containing 5% (w/v) BSA was added to each well and incubated at room temperature. After 30 min, 100 μl of 1:10,000 anti-FLAG M2-horseradish peroxidase conjugate (Sigma-Aldrich, Cat A8592) was added to each well and incubated for 30 min at 37 °C. Cells were washed twice with 200 μl of 1× PBS and then incubated with 200 μl of TMB Chromogen Solution (Sangon Biotech, E661007) for 30 min at 37 °C in the dark. Finally, 50 μl of ELISA Stopping Solution (Sangon Biotech, E661006) was added to each well to stop the reaction. The absorbance at 450 nm was measured using a Tecan Spark microplate reader. […]
# apTKRPR-B T391 = apTKRPR-B T391 (Aplysia californica, UniProt A0AAU7STS1, DEL392-447); assay: Cell surface expression by ELISA after ligand exposure, truncated apTKRPR-B T391; conditions: 10 µM, 60 min, n = 5
# Procedure: as §2
structure (smiles),measurement,setting,value
CC(C)C[C@H](NC(=O)[C@H](Cc1c[nH]cn1)NC(=O)[C@@H]1CCCN1C(=O)[C@@H]1CCC(=O)N1)C(=O)NCC(=O)N[C@@H](Cc1ccccc1)C(=O)N[C@@H](Cc1c[nH]cn1)C(=O)NCC(=O)N[C@@H](CO)C(=O)N[C@@H](CCCNC(=N)N)C(N)=O [apTKRP-2b] ([pGlu]PHLGFHGSR-NH2),"time course of IP1 accumulation, apTKRPR-A (protocol 1)",apTKRPR-A [1],initially increased and then reached a plateau
same,"IP1 accumulation after pretreatment, apTKRPR-B (protocol 2)",apTKRPR-B,IP1 accumulation was less after the second exposure
same,cell surface receptor expression of apTKRPR-A after agonist exposure,apTKRPR-A [2],significant loss of receptor expression
same,cell surface receptor expression of T391 after agonist exposure,apTKRPR-B T391,did not change significantly
